Results as given in US20240400560A1, “BICYCLIC HETEROCYCLIC DERIVATIVE HAVING VIRAL GROWTH INHIBITORY ACTIVITY AND PHARMACEUTICAL COMPOSITION CONTAINING SAME” (Shionogi & Co., Ltd., priority 2021, published 2024).
Like-named read-outs stand apart in the source and are kept apart here.

Legend:
SARS-CoV-2 = test: Inhibitory activity of cytopathic effect (CPE) in HEK293T/ACE2-TMPRSS2 cells; assay type: cell-based; details: Severe acute respiratory syndrome coronavirus 2, HEK-293T, 72 h
SARS-CoV-2 3CL protease = SARS-CoV-2 3CL protease (Severe acute respiratory syndrome coronavirus 2, UniProt P0DTD1); test: Inhibitory activity test against SARS-CoV-2 3CL proteases; assay type: biochemical
[1] = HEK293T/ACE2-TMPRSS2 cells, cultured 3 days, CellTiter-Glo 2.0 luminescence, read-out: EC50 (50% SARS-CoV-2 infected cell death inhibitory concentration)
[2] = read-out: IC50 (50% SARS-CoV-2 3CL protease inhibitory concentration)
[3] = 50% SARS-CoV-2 infected cell death inhibitory concentration, HEK293T/ACE2-TMPRSS2 cells, CellTiter-Glo 2.0 after 3 days culture, read-out: EC50

Structure (SMILES)	EC50 (SARS-CoV-2; [1]) [nM]	IC50 (SARS-CoV-2 3CL protease; [2]) [nM]	EC50 (SARS-CoV-2; [3]) [nM]	EC50 (SARS-CoV-2; read-out: EC50 (50% SARS-CoV-2 infected cell death inhibitory concentration)) [nM]	IC50 (SARS-CoV-2 3CL protease; IC50 (50% SARS-CoV-2 3CL protease inhibitory concentration)) [nM]
COc1nc(N2CC[C@@H](C#N)C2)cc2c1c(=O)n(-c1cncc(C#N)c1)c(=O)n2-c1ccc(F)c(Cl)c1 [Compound I-0939]	< 100	< 100	–	–	–
COc1nc(N2C[C@@H]3C[C@H]2CO3)cc2c1c(=O)n(-c1cncc(C#N)c1)c(=O)n2-c1ccc(F)c(Cl)c1 [Compound I-0940]	–	1.7	5.66	–	–
COc1nc(N2CC[C@@H](C#N)C2)cc2c1c(=O)n(-c1cncc(OCF)c1)c(=O)n2-c1ccc(F)c(Cl)c1 [Compound I-0941]	< 100	< 100	–	–	–
[2H]C([2H])([2H])O[C@@H]1CCN(c2cc3c(c(OC)n2)c(=O)n(-c2cnc4cc(F)ccn24)c(=O)n3-c2cc(F)c(F)c(Cl)c2)C1 [Compound I-0942]	< 100	< 100	–	–	–
COc1nc(N2C[C@@H]3C[C@H]2CO3)cc2c1c(=O)n(-c1cnc3cc(F)ccn13)c(=O)n2-c1ccc(F)c(Cl)c1 [Compound I-0943]	< 100	< 100	–	–	–
COc1nc(N2CC[C@@H](O)C2)cc2c1c(=O)n(-c1cncc(Cl)c1)c(=O)n2-c1ccc(F)c(Cl)c1 [Compound I-0944]	< 100	< 100	–	–	–
COc1nc(N2CC[C@@H](C#N)C2)cc2c1c(=O)n(-c1cncc(C(F)F)c1)c(=O)n2-c1ccc(F)c(Cl)c1 [Compound I-0945]	< 100	< 100	–	–	–
COc1nc(N2CC[C@@H](C#N)C2)cc2c1c(=O)n(-c1cnc3cc(F)c(F)cn13)c(=O)n2-c1ccc(F)c(Cl)c1 [Compound I-0946]	< 100	< 100	–	–	–
[2H]C([2H])([2H])O[C@@H]1CCN(c2cc3c(c(OC)n2)c(=O)n(-c2cncc(C#N)c2)c(=O)n3-c2ccc(F)c(Cl)c2)C1 [Compound I-0948]	< 100	< 100	–	–	–
COc1nc(N2CC[C@@H](C#N)C2)cc2c1c(=O)n(-c1cncc(Cl)c1)c(=O)n2-c1ccc(F)c(F)c1 [Compound I-0949]	< 100	< 100	–	–	–
COc1nc(N2[C@@H]3CC[C@H]2CNC3)cc2c1c(=O)n(-c1cnc3cc(F)c(Cl)cn13)c(=O)n2-c1ccc(F)c(Cl)c1 [Compound I-0950]	–	–	–	< 100	< 100
COc1nc(N2CC[C@@H](C#N)C2)cc2c1c(=O)n(-c1cncc(OC(F)F)c1)c(=O)n2-c1ccc(F)c(Cl)c1 [Compound I-0951]	< 100	< 100	–	–	–
COc1nc(N2CC[C@@H](O)C2)cc2c1c(=O)n(-c1cnc3cc(F)c(Cl)cn13)c(=O)n2-c1ccc(F)c(Cl)c1 [Compound I-0952]	< 100	< 100	–	–	–
[2H]C([2H])([2H])O[C@@H]1CCN(c2cc3c(c(OC)n2)c(=O)n(-c2cncc(F)c2)c(=O)n3-c2ccc(F)c(Cl)c2)C1 [Compound I-0953]	< 100	< 100	–	–	–
COc1nc(N2CCC(F)(F)C2)cc2c1c(=O)n(-c1cncc(C)c1)c(=O)n2-c1ccc(F)c(Cl)c1 [Compound I-0954]	< 100	< 100	–	–	–
O=c1c2c(=O)n(-c3cnc4cc(F)ccn34)c(=O)n(-c3ccc(F)c(Cl)c3)c2cc2n1CC[C@@H]1CCCN21 [Compound I-0955]	–	3.1	540	–	–
COc1nc(N2CC[C@@H](O)C2)cc2c1c(=O)n(-c1cncc(OCF)c1)c(=O)n2-c1ccc(F)c(Cl)c1 [Compound I-0956]	< 100	< 100	–	–	–
COc1nc(N2CC[C@@H](O)C2)cc2c1c(=O)n(-c1cncc(C#N)c1)c(=O)n2-c1ccc(F)c(Cl)c1 [Compound I-0957]	–	3.2	8.14	–	–
COc1nc(N2CC[C@@H](C#N)C2)cc2c1c(=O)n(-c1cnc3cc(F)ccn13)c(=O)n2-c1ccc(F)c(C(F)F)c1 [Compound I-0958]	< 100	< 100	–	–	–
COc1nc(N2CC[C@@H](C#N)C2)cc2c1c(=O)n(-c1cnc3cc(F)ccn13)c(=O)n2-c1ccc(F)c(F)c1 [Compound I-0959]	< 100	< 100	–	–	–
COc1nc(N2C[C@@H]3C[C@H]2CO3)cc2c1c(=O)n(-c1cnc3cc(F)ccn13)c(=O)n2-c1ccc(F)c(C(F)F)c1 [Compound I-0960]	< 100	< 100	–	–	–
COc1nc(N2C[C@@H](F)[C@@H](F)C2)cc2c1c(=O)n(-c1cnc3cc(F)ccn13)c(=O)n2-c1ccc(F)c(C(F)F)c1 [Compound I-0961]	–	3.4	5.82	–	–

Structure (SMILES)	EC50 (SARS-CoV-2; [1]) [nM]	IC50 (SARS-CoV-2 3CL protease; [2]) [nM]	EC50 (SARS-CoV-2; [3]) [nM]	EC50 (SARS-CoV-2; read-out: EC50 (50% SARS-CoV-2 infected cell death inhibitory concentration)) [nM]	IC50 (SARS-CoV-2 3CL protease; IC50 (50% SARS-CoV-2 3CL protease inhibitory concentration)) [nM]
Cl.[2H]C([2H])([2H])O[C@@H]1CCN(c2cc3c(c(OC)n2)c(=O)n(-c2cnc4cc(F)c(F)cn24)c(=O)n3-c2ccc(F)c(Cl)c2)C1 [Compound I-0962]	< 100	< 100	–	–	–
[2H]C([2H])([2H])O[C@@H]1CCN(c2cc3c(c(OC)n2)c(=O)n(-c2cncc(OCF)c2)c(=O)n3-c2ccc(F)c(Cl)c2)C1 [Compound I-0963]	< 100	< 100	–	–	–
COc1nc(N2CC[C@@H](O)C2)cc2c1c(=O)n(-c1cncc(C(F)F)c1)c(=O)n2-c1ccc(F)c(Cl)c1 [Compound I-0964]	< 100	< 100	–	–	–
COc1nc(N2CC[C@@H](O)C2)cc2c1c(=O)n(-c1cncc(F)c1)c(=O)n2-c1ccc(F)c(Cl)c1 [Compound I-0965]	< 100	< 100	–	–	–
CCNc1cc2c(c(OC)n1)c(=O)n(-c1cncc(Cl)c1)c(=O)n2-c1ccc(F)c(Cl)c1 [Compound I-0966]	–	3.8	9.01	–	–
COc1nc(N2CC[C@@H](O)C2)cc2c1c(=O)n(-c1cnc3cc(F)c(F)cn13)c(=O)n2-c1ccc(F)c(Cl)c1 [Compound I-0967]	< 100	< 100	–	–	–
COc1nc(N2CC[C@@H](O)C2)cc2c1c(=O)n(-c1cncc(OC(F)F)c1)c(=O)n2-c1ccc(F)c(Cl)c1 [Compound I-0968]	< 100	< 100	–	–	–
COc1nc(N2CC[C@@H](CO)C2)cc2c1c(=O)n(-c1cncc(Cl)c1)c(=O)n2-c1ccc(F)c(Cl)c1 [Compound I-0969]	< 100	< 100	–	–	–
[2H]C([2H])([2H])O[C@@H]1CCN(c2cc3c(c(OC)n2)c(=O)n(-c2cncc(C(F)F)c2)c(=O)n3-c2ccc(F)c(Cl)c2)C1 [Compound I-0970]	< 100	< 100	–	–	–
[2H]C([2H])([2H])O[C@@H]1CCN(c2cc3c(c(OC)n2)c(=O)n(-c2cncc(OC(F)F)c2)c(=O)n3-c2ccc(F)c(Cl)c2)C1 [Compound I-0971]	< 100	< 100	–	–	–
[2H]C([2H])([2H])O[C@@H]1CCN(c2cc3c(c(OC)n2)c(=O)n(-c2cc(C)cnn2)c(=O)n3-c2ccc(F)c(Cl)c2)C1 [Compound I-0972]	< 100	< 100	–	–	–
[2H]C([2H])([2H])O[C@@H]1CCN(c2cc3c(c(OC)n2)c(=O)n(-c2cncc(Cl)c2)c(=O)n3-c2ccc(F)c(F)c2)C1 [Compound I-0973]	< 100	< 100	–	–	–
COc1nc(N2CCC(S(C)(=O)=O)C2)cc2c1c(=O)n(-c1cncc(Cl)c1)c(=O)n2-c1ccc(F)c(Cl)c1 (centres unmarked) [Compound I-0974]	< 100	< 100	–	–	–
COc1nc(N2CCC(n3cccn3)C2)cc2c1c(=O)n(-c1cnc3cc(F)ccn13)c(=O)n2-c1ccc(F)c(Cl)c1 (centres unmarked) [Compound I-0975]	< 100	< 100	–	–	–
COc1nc(C(C)C)cc2c1c(=O)n(-c1cnc3cc(F)ccn13)c(=O)n2-c1ccc(F)c(Cl)c1 [Compound I-0976]	< 100	< 100	–	–	–
COc1nc(N2CCC(F)(F)C2)cc2c1c(=O)n(-c1cncc(C#N)c1)c(=O)n2-c1ccc(F)c(Cl)c1 [Compound I-0977]	< 100	< 100	–	–	–
COc1nc(N2C[C@@H]3C[C@H]2CO3)cc2c1c(=O)n(-c1cnc3cc(F)ccn13)c(=O)n2-c1ccc(F)c(F)c1 [Compound I-0978]	–	4.8	11.8	–	–
COc1nc(N2CC[C@@H](O)C2)cc2c1c(=O)n(-c1cncc(Cl)c1)c(=O)n2-c1ccc(F)c(F)c1 [Compound I-0979]	< 100	< 100	–	–	–
COc1nc(N2CC[C@@H](C#N)C2)cc2c1c(=O)n(-c1cncc(OCF)c1)c(=O)n2-c1ccc(F)c(F)c1 [Compound I-0980]	< 100	< 100	–	–	–
[2H]C([2H])([2H])O[C@@H]1CCN(c2cc3c(c(OC)n2)c(=O)n(-c2cnc4cc(F)ccn24)c(=O)n3-c2ccc(F)c(C(F)F)c2)C1 [Compound I-0981]	< 100	< 100	–	–	–
COc1nc(N2CC[C@@H](F)C2)cc2c1c(=O)n(-c1cnc3cc(F)ccn13)c(=O)n2-c1ccc(F)c(F)c1 [Compound I-0982]	< 100	< 100	–	–	–
